Assay results: ChEMBL document CHEMBL5260833, “An overview of quinazolines: Pharmacological significance and recent developments” (Eur J Med Chem, 2018)
Values after ≈ are worked out from the molar mass of the structure shown.

How the values were obtained:
[1] = test system: Staphylococcus aureus; test: Antibacterial activity against Staphylococcus aureus assessed as zone of inhibition at 100 ppm; format: functional; settings: read-out: IZ
[2] = test system: Escherichia coli; test: Antibacterial activity against Escherichia coli assessed as zone of inhibition at 100 ppm; format: functional; settings: read-out: IZ
[3] = test system: Citrobacter freundii; test: Antimicrobial activity against Citrobacter freundii assessed as bacterial growth inhibition; format: functional
[4] = test system: Micrococcus luteus; test: Antimicrobial activity against Micrococcus luteus assessed as bacterial growth inhibition; format: functional
[5] = test system: Proteus vulgaris; test: Antimicrobial activity against Proteus vulgaris assessed as bacterial growth inhibition; format: functional
[6] = test system: Proteus mirabilis; test: Antimicrobial activity against Proteus mirabilis assessed as bacterial growth inhibition; format: functional
[7] = test system: Staphylococcus epidermidis; test: Antimicrobial activity against Staphylococcus epidermidis assessed as bacterial growth inhibition; format: functional
[8] = test system: Klebsiella oxytoca; test: Antimicrobial activity against Klebsiella oxytoca assessed as bacterial growth inhibition; format: functional
[9] = test system: Mycolicibacterium phlei; test: Antimicrobial activity against Mycobacterium phlei assessed as bacterial growth inhibition; format: functional
[10] = test system: Candida albicans; test: Antimicrobial activity against Candida albicans assessed as bacterial growth inhibition; format: functional
[11] = test system: Staphylococcus aureus; test: Antimicrobial activity against Staphylococcus aureus assessed as bacterial growth inhibition; format: functional
[12] = test system: Escherichia coli; test: Antimicrobial activity against Escherichia coli assessed as bacterial growth inhibition; format: functional
[13] = test system: Pseudomonas aeruginosa; test: Antimicrobial activity against Pseudomonas aeruginosa assessed as bacterial growth inhibition; format: functional
[14] = test system: Bacillus subtilis; test: Antimicrobial activity against Bacillus subtilis assessed as bacterial growth inhibition; format: functional
[15] = test system: Staphylococcus saprophyticus; test: Antimicrobial activity against Staphylococcus saprophyticus assessed as bacterial growth inhibition; format: functional
[16] = target: T1, Type-1 angiotensin II receptor A (Rattus norvegicus, UniProt P25095); test: Inhibition of rat adrenal cortex angiotensin II; format: tissue-based
T1 sequence (P25095 whole entry): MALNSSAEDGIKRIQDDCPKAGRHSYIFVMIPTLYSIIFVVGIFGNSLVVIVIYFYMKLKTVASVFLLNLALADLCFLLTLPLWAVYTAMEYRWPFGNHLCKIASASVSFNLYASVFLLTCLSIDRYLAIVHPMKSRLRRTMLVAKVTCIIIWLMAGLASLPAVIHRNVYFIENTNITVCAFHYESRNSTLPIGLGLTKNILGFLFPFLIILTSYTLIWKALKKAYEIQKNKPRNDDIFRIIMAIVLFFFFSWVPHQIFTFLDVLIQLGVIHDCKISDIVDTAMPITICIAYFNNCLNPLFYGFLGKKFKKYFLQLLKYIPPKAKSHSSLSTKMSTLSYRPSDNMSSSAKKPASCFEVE

[17] = test system: Rattus norvegicus; test: Inhibition of AII induced rat assessed as vasoconstrictor at 15 mg/kg, iv; format: functional
[18] = test system: Rattus norvegicus; test: Inhibition of AII induced mean arterial blood pressure in rat assessed as vasoconstrictor at 5 mg/kg, po; format: functional
[19] = test system: Mus musculus; test: Analgesic activity in […] albino mouse at 20 mg/kg, po measured after 2 hrs by Tail-Flick technique relative to control; format: functional

COc1cc(/C=N/n2c(C)nc3ccc(Br)cc3c2=O)cc(Br)c1O
zone of inhibition at 100 µg/mL [1]: 16 mm | zone of inhibition at 100 µg/mL [2]: 14 mm

O=c1c2ccc(Cl)cc2nc(/C=C/c2ccc(Cl)cc2)n1-c1ccc(OCC2CO2)cc1 (centres undefined)
MIC [3]: 125 µg/mL (≈ 269 µM) | MIC [4]: 125 µg/mL (≈ 269 µM) | MIC [5]: 125 µg/mL (≈ 269 µM) | MIC [6]: 125 µg/mL (≈ 269 µM) | MIC [7]: 125 µg/mL (≈ 269 µM) | MIC [8]: 125 µg/mL (≈ 269 µM) | MIC [9]: 125 µg/mL (≈ 269 µM) | MIC [10]: 125 µg/mL (≈ 269 µM) | MIC [11]: 125 µg/mL (≈ 269 µM) | MIC [12]: 125 µg/mL (≈ 269 µM) | MIC [13]: 125 µg/mL (≈ 269 µM) | MIC [14]: 125 µg/mL (≈ 269 µM) | MIC [15]: 125 µg/mL (≈ 269 µM)

CCCCNC(=O)Oc1ccc(-n2c(/C=C/c3ccc(Cl)cc3)nc3cc(Cl)ccc3c2=O)cc1
MIC [3]: 125 µg/mL (≈ 246 µM) | MIC [4]: 125 µg/mL (≈ 246 µM) | MIC [5]: 125 µg/mL (≈ 246 µM) | MIC [6]: 125 µg/mL (≈ 246 µM) | MIC [7]: 125 µg/mL (≈ 246 µM) | MIC [8]: 125 µg/mL (≈ 246 µM) | MIC [9]: 125 µg/mL (≈ 246 µM) | MIC [10]: 125 µg/mL (≈ 246 µM) | MIC [11]: 125 µg/mL (≈ 246 µM) | MIC [12]: 125 µg/mL (≈ 246 µM) | MIC [13]: 125 µg/mL (≈ 246 µM) | MIC [14]: 125 µg/mL (≈ 246 µM) | MIC [15]: 125 µg/mL (≈ 246 µM)

CCOC(=O)Oc1ccc(-n2c(/C=C/c3ccc(Cl)cc3)nc3cc(Cl)ccc3c2=O)cc1
MIC [3]: 125 µg/mL (≈ 260 µM) | MIC [4]: 125 µg/mL (≈ 260 µM) | MIC [5]: 125 µg/mL (≈ 260 µM) | MIC [6]: 125 µg/mL (≈ 260 µM) | MIC [7]: 125 µg/mL (≈ 260 µM) | MIC [8]: 125 µg/mL (≈ 260 µM) | MIC [9]: 125 µg/mL (≈ 260 µM) | MIC [10]: 125 µg/mL (≈ 260 µM) | MIC [11]: 125 µg/mL (≈ 260 µM) | MIC [12]: 125 µg/mL (≈ 260 µM) | MIC [13]: 125 µg/mL (≈ 260 µM) | MIC [14]: 125 µg/mL (≈ 260 µM) | MIC [15]: 125 µg/mL (≈ 260 µM)

CCCC1N(Cc2ccc(-c3ccccc3-c3nn[nH]n3)cc2)C(=O)c2ccccc2N1C (centres undefined)
IC50 [16]: 0.54 µM | inhibition in vivo at 15 mg/kg [17]: 88%

CCCCc1nc2ccc(C(O)CO)cc2c(=O)n1Cc1ccc(-c2ccccc2-c2nn[nH]n2)cc1 (centres undefined)
IC50 [16]: > 1 µM | Activity [18]: 65 mmHg

CCCCc1nc2ccc(C(CC)OC)cc2c(=O)n1Cc1ccc(-c2ccccc2-c2nn[nH]n2)cc1 (centres undefined)
IC50 [16]: 0.018 µM | Activity [18]: 65 mmHg

COc1cc(/C=N/n2c(C)nc3ccc(I)cc3c2=O)cc(Br)c1O
zone of inhibition at 100 µg/mL [1]: 16 mm | zone of inhibition at 100 µg/mL [2]: 14 mm

CCN(CC)C(=S)Nn1c(-c2ccccc2)nc2ccccc2c1=O
Activity [19]: 58%

CCCCc1nc2ccc(C(O)C(C)(C)C)cc2c(=O)n1Cc1ccc(-c2ccccc2-c2nn[nH]n2)cc1 (centres undefined)
IC50 [16]: > 1 µM | Activity [18]: 65 mmHg

CCCCc1nc2ccc(C(C)(C)OC)cc2c(=O)n1Cc1ccc(-c2ccccc2-c2nn[nH]n2)cc1 [CL-329167]
IC50 [16]: 0.018 µM | Activity [18]: 65 mmHg

Cc1nc2ccc(Br)cc2c(=O)n1/N=C/c1cc(Cl)cc(Cl)c1O
zone of inhibition at 100 µg/mL [1]: 16 mm | zone of inhibition at 100 µg/mL [2]: 14 mm

Cc1nc2ccc(I)cc2c(=O)n1/N=C/c1cc(I)cc(I)c1O
zone of inhibition at 100 µg/mL [1]: 16 mm | zone of inhibition at 100 µg/mL [2]: 14 mm

O=C([O-])Cc1ccccc1Nc1c(Cl)cccc1Cl.[Na+] [DICLOFENAC SODIUM]
Activity [19]: 60%

O=c1c2ccc([N+](=O)[O-])cc2nc(/C=C/c2ccc(Cl)cc2)n1-c1ccc(OCC2CO2)cc1 (centres undefined)
MIC [3]: 125 µg/mL (≈ 263 µM) | MIC [4]: 125 µg/mL (≈ 263 µM) | MIC [5]: 125 µg/mL (≈ 263 µM) | MIC [6]: 125 µg/mL (≈ 263 µM) | MIC [7]: 125 µg/mL (≈ 263 µM) | MIC [8]: 125 µg/mL (≈ 263 µM) | MIC [9]: 125 µg/mL (≈ 263 µM) | MIC [10]: 125 µg/mL (≈ 263 µM) | MIC [11]: 125 µg/mL (≈ 263 µM) | MIC [12]: 125 µg/mL (≈ 263 µM) | MIC [13]: 125 µg/mL (≈ 263 µM) | MIC [14]: 125 µg/mL (≈ 263 µM) | MIC [15]: 125 µg/mL (≈ 263 µM)

CCCCC1Nc2ccc(C(C)C)cc2C(=O)N1Cc1ccc(-c2ccccc2-c2nn[nH]n2)cc1 (centres undefined)
IC50 [16]: 1.1 µM | inhibition in vivo at 15 mg/kg [17]: 88%

CCCCC1N(Cc2ccc(-c3ccccc3-c3nn[nH]n3)cc2)C(=O)c2ccccc2N1C (centres undefined)
IC50 [16]: 14 µM | inhibition in vivo at 15 mg/kg [17]: 88%

Cc1nc2ccc(Br)cc2c(=O)n1/N=C/c1cc(I)cc(I)c1O
zone of inhibition at 100 µg/mL [1]: 16 mm | zone of inhibition at 100 µg/mL [2]: 14 mm

CCC(CC)=NNC1=Nc2ccccc2C(=O)C1c1ccccc1 (centres undefined)
Activity [19]: 72%

CCCCC1Nc2ccccc2C(=O)N1Cc1ccc(-c2ccccc2-c2nn[nH]n2)cc1 (centres undefined)
IC50 [16]: 14 µM | inhibition in vivo at 15 mg/kg [17]: 88%

O=c1c2ccc([N+](=O)[O-])cc2nc(/C=C/c2ccc(Cl)cc2)n1-c1ccc(O)cc1
MIC [3]: 125 µg/mL (≈ 298 µM) | MIC [4]: 125 µg/mL (≈ 298 µM) | MIC [5]: 125 µg/mL (≈ 298 µM) | MIC [6]: 125 µg/mL (≈ 298 µM) | MIC [7]: 125 µg/mL (≈ 298 µM) | MIC [8]: 125 µg/mL (≈ 298 µM) | MIC [9]: 125 µg/mL (≈ 298 µM) | MIC [10]: 125 µg/mL (≈ 298 µM) | MIC [11]: 125 µg/mL (≈ 298 µM) | MIC [12]: 125 µg/mL (≈ 298 µM) | MIC [13]: 125 µg/mL (≈ 298 µM) | MIC [14]: 125 µg/mL (≈ 298 µM) | MIC [15]: 125 µg/mL (≈ 298 µM)

COc1cc(/C=N/n2c(C)nc3ccc(I)cc3c2=O)cc(I)c1O
zone of inhibition at 100 µg/mL [1]: 16 mm | zone of inhibition at 100 µg/mL [2]: 14 mm

O=c1c2ccc(Cl)cc2nc(/C=C/c2ccc(Cl)cc2)n1-c1ccc(O)cc1
MIC [3]: 125 µg/mL (≈ 305 µM) | MIC [4]: 125 µg/mL (≈ 305 µM) | MIC [5]: 125 µg/mL (≈ 305 µM) | MIC [6]: 125 µg/mL (≈ 305 µM) | MIC [7]: 125 µg/mL (≈ 305 µM) | MIC [8]: 125 µg/mL (≈ 305 µM) | MIC [9]: 125 µg/mL (≈ 305 µM) | MIC [10]: 125 µg/mL (≈ 305 µM) | MIC [11]: 125 µg/mL (≈ 305 µM) | MIC [12]: 125 µg/mL (≈ 305 µM) | MIC [13]: 125 µg/mL (≈ 305 µM) | MIC [14]: 125 µg/mL (≈ 305 µM) | MIC [15]: 125 µg/mL (≈ 305 µM)
